Test results taken from the NIST ThermoML archive (doi:10.1016/j.jct.2015.07.032).

Assays:
[1] = relative permittivity at various frequencies (dimensionless); conditions: 100 kPa, Liquid, Frequency=1 MHz, Parallel plate capacitor
[2] = relative permittivity at various frequencies (dimensionless); xn = mol fraction of the nth substance listed; conditions: 100 kPa, Liquid, Frequency=1 MHz, Parallel plate capacitor

CCCCCCCCCCO [decan-1-ol]
[1]
Conditions | relative permittivity
293.15 K | 8.41
298.15 K | 8.01
303.15 K | 7.64

CCCCO [butan-1-ol] + NC1CCCCC1
[2], x1 = 1
Conditions | relative permittivity
293.15 K | 18.21
298.15 K | 17.58
303.15 K | 16.95

CCCCCCCCCCO [decan-1-ol] + NC1CCCCC1
[2], x1 = 1
Conditions | relative permittivity
293.15 K | 8.41
298.15 K | 8.01
303.15 K | 7.64

NC1CCCCC1 [cyclohexylamine] + CCCCO
relative permittivity, [2]
Conditions | 293.15 K | 298.15 K | 303.15 K
x2 = 0 | 4.62 | 4.53 | 4.45
x2 = 0.0493 | 4.99 | 4.9 | 4.8
x2 = 0.1081 | 5.46 | 5.35 | 5.23
x2 = 0.2107 | 6.37 | 6.22 | 6.07
x2 = 0.3104 | 7.39 | 7.2 | 7.01
x2 = 0.403 | 8.47 | 8.22 | 7.99
x2 = 0.4521 | 9.08 | 8.82 | 8.56
x2 = 0.4995 | 9.73 | 9.44 | 9.15
x2 = 0.5556 | 10.55 | 10.21 | 9.9
x2 = 0.5974 | 11.18 | 10.82 | 10.49
x2 = 0.6987 | 12.81 | 12.4 | 11.98
x2 = 0.7968 | 14.53 | 14.04 | 13.57
x2 = 0.8955 | 16.31 | 15.76 | 15.24
x2 = 0.9472 | 17.26 | 16.67 | 16.11
x2 = 0.9773 | 17.82 | 17.2 | 16.63

CCCCO [butan-1-ol]
[1]
Conditions | relative permittivity
293.15 K | 18.21
298.15 K | 17.58
303.15 K | 16.95

NC1CCCCC1 [cyclohexylamine]
[1]
Conditions | relative permittivity
293.15 K | 4.62
298.15 K | 4.53
303.15 K | 4.45

CCCCCCCO [heptan-1-ol] + NC1CCCCC1
[2], x1 = 1
Conditions | relative permittivity
293.15 K | 11.97
298.15 K | 11.47
303.15 K | 10.98

CCCCCCCO [heptan-1-ol]
[1]
Conditions | relative permittivity
293.15 K | 11.97
298.15 K | 11.47
303.15 K | 10.98

NC1CCCCC1 [cyclohexylamine] + CCCCCCCO
relative permittivity, [2]
Conditions | 293.15 K | 298.15 K | 303.15 K
x2 = 0 | 4.62 | 4.53 | 4.45
x2 = 0.0522 | 4.93 | 4.83 | 4.74
x2 = 0.1037 | 5.22 | 5.11 | 5.01
x2 = 0.2039 | 5.8 | 5.7 | 5.61
x2 = 0.2903 | 6.29 | 6.15 | 6.01
x2 = 0.3955 | 6.93 | 6.76 | 6.6
x2 = 0.4467 | 7.27 | 7.08 | 6.91
x2 = 0.5072 | 7.67 | 7.45 | 7.26
x2 = 0.5554 | 8.01 | 7.78 | 7.56
x2 = 0.5918 | 8.26 | 8.01 | 7.78
x2 = 0.6575 | 8.72 | 8.45 | 8.19
x2 = 0.6959 | 9.01 | 8.71 | 8.44
x2 = 0.7433 | 9.39 | 9.07 | 8.77
x2 = 0.7933 | 9.81 | 9.46 | 9.13
x2 = 0.8177 | 10.03 | 9.67 | 9.34
x2 = 0.8881 | 10.7 | 10.29 | 9.9
x2 = 0.9463 | 11.35 | 10.89 | 10.45
